Data published in patent US6525211B1, “Herbicidal sulphonylamino(thio)carbonyl compounds” (Bayer Aktiengesellschaft, priority 1995, dated 2003).

Experiments:
broad-leaved weeds [1] = assay: Post-emergence test (Example B); format: in vivo; conditions: test plants of 5-15 cm height sprayed, 2,000 l water/ha, rated after three weeks vs untreated control (0%=no action, 100%=total destruction)
Method: (§1) To produce a suitable preparation of active compound, 1 part by weight of active compound is mixed with the stated amount of solvent, the stated amount of emulsifier is added and the concentrate is diluted with water to the desired concentration.
Test plants which have a height of 5-15 cm are sprayed with the preparation of the active compound in such a way as to apply the particular amounts of active compound desired per unit area. The concentration of the spray liquor is chosen so that the particular amounts of active compound desired are applied in 2,000 1 of water/ha. After three weeks, the degree of damage to the plants is rated in % damage in comparison to the development of the untreated control.
(§2) 0%=no action (like untreated control) 100%=total destruction

broad-leaved weeds [2] = assay: Pre-emergence test (Example A); format: in vivo; conditions: soil watered with preparation 24 hours after sowing, rated after three weeks vs untreated control (0%=no action, 100%=total destruction)
Method: Solvent: 5 parts by weight of acetone
Emulsifier: 1 part by weight of alkylaryl polyglycol ether
as §1
Seeds of the test plants are sown in normal soil, and, after 24 hours, the soil is watered with the preparation of the active compound. It is expedient to keep constant the amount of water per unit area. The concentration of the active compound in the preparation is of no importance, only the amount of active compound applied per unit area being decisive.
After three weeks, the degree of damage to the plants is rated in % damage in comparison to the development of the untreated control. The figures denote:
as §2

Structure (SMILES) | melting point | action against broad-leaved weeds (degree of damage to the plants) (broad-leaved weeds [1]) | action against broad-leaved weeds (degree of damage to the plants) (broad-leaved weeds [2])
CCOc1cccc(C)c1S(=O)(=O)NC(=O)n1nc(OCC)n(C)c1=O [Example 9, 5-ethoxy-4-methyl-2-(2-ethoxy-6-methyl-phenylsulphonylaminocarbonyl)-2,4-dihydro-3H-1,2,4-triazol-3-one] | 162 °C | – | –
CCOc1nn(C(=O)NS(=O)(=O)c2c(C)cccc2OC(C)C)c(=O)n1C [Example 1, 5-ethoxy-4-methyl-2-(2-isopropoxy-6-methyl-phenylsulphonyl-aminocarbonyl)-2,4-dihydro-3H-1,2,4-triazol-3-one] | – | very strong action | very strong action
